Experiments:
Experiment in all cases: biochemical
Parameters in all cases: Invitrogen kinase panel: Z'Lyte activity (ATP at Km) or LanthaScreen competitive ATP-site binding, percent inhibition
CaMKI_delta = biological target: T1, CaMKI_delta (Homo sapiens, UniProt Q8IU85)
T1 construct: gene CAMK1D

PKG1_alpha = biological target: T2, PKG1_alpha (Homo sapiens, UniProt Q13976)
T2 construct: gene PRKG1; isoform alpha

TTK = TTK (Homo sapiens, UniProt P33981)
MuSK = MuSK (Homo sapiens, UniProt O15146)
JNK1_alpha1 = biological target: T3, JNK1_alpha1 (Homo sapiens, UniProt P45983)
T3 construct: gene MAPK8; isoform alpha1

TSSK1 = biological target: T4, TSSK1 (Homo sapiens, UniProt Q9BXA7)
T4 construct: gene TSSK1B

GSK3_alpha = biological target: T5, GSK3_alpha (Homo sapiens, UniProt P49840)
T5 construct: gene GSK3A

ROCK2 = ROCK2 (Homo sapiens, UniProt O75116)
PDK1(direct) = biological target: T6, PDK1(direct) (Homo sapiens, UniProt O15530)
T6 construct: gene PDPK1; direct

BrSK1 = BrSK1 (Homo sapiens, UniProt Q8TDC3)
DDR1 = DDR1 (Homo sapiens, UniProt Q08345)
CLK4 = CLK4 (Homo sapiens, UniProt Q9HAZ1)
MARK3 = MARK3 (Homo sapiens, UniProt P27448)
JNK3 = biological target: T7, JNK3 (Homo sapiens, UniProt P53779)
T7 construct: gene MAPK10

MKNK2 = MKNK2 (Homo sapiens, UniProt Q9HBH9)
Blk = Blk (Homo sapiens, UniProt P51451)
PhK_gamma2 = biological target: T8, PhK_gamma2 (Homo sapiens, UniProt P15735)
T8 construct: gene PHKG2

GRK6 = GRK6 (Homo sapiens, UniProt P43250)
EphA1 = EphA1 (Homo sapiens, UniProt P21709)
EphB1 = EphB1 (Homo sapiens, UniProt P54762)
WEE1 = WEE1 (Homo sapiens, UniProt P30291)
TGFBR1 = TGFBR1 (Homo sapiens, UniProt P36897)
JAK3 = JAK3 (Homo sapiens, UniProt P52333)
CAMKK2 = CAMKK2 (Homo sapiens, UniProt Q96RR4)
CK2_alpha1 = biological target: T9, CK2_alpha1 (Homo sapiens, UniProt P68400)
T9 construct: gene CSNK2A1

ROCK2, sequence (O75116 whole entry): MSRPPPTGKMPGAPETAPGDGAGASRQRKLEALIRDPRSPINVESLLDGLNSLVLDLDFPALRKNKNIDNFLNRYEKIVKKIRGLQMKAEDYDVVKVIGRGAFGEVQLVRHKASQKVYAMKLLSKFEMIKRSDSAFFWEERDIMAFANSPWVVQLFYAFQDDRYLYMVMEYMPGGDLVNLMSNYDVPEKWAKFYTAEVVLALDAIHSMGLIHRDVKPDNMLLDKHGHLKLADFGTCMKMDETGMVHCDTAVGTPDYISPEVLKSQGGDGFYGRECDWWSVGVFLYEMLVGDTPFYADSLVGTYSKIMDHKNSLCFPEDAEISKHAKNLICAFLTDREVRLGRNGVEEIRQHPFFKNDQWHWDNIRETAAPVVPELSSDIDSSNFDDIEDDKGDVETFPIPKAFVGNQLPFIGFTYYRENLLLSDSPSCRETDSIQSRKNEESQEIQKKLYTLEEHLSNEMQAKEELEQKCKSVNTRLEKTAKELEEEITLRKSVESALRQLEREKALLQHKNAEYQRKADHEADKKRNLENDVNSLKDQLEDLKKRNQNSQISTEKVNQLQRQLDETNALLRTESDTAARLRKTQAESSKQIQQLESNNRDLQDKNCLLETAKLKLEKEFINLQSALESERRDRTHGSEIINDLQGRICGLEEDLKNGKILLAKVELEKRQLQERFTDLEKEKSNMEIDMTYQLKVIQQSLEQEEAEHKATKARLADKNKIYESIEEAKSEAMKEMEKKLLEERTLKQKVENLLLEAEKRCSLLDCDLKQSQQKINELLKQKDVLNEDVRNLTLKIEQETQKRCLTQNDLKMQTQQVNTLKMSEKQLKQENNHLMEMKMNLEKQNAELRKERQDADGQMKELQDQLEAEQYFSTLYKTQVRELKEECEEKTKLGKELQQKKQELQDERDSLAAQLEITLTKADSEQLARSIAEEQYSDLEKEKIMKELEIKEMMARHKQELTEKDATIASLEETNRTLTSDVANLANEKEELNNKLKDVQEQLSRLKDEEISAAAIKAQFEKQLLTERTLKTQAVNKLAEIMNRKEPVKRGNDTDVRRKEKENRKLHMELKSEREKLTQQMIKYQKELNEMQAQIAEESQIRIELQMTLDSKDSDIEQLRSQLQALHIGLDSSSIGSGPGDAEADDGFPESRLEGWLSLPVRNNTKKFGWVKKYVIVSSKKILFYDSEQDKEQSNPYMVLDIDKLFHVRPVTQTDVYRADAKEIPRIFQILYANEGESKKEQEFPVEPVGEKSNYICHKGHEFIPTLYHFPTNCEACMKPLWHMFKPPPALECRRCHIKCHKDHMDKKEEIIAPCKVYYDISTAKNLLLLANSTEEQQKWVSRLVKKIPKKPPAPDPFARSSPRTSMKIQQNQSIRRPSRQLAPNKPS
T2 sequence (Q13976 whole entry, canonical isoform): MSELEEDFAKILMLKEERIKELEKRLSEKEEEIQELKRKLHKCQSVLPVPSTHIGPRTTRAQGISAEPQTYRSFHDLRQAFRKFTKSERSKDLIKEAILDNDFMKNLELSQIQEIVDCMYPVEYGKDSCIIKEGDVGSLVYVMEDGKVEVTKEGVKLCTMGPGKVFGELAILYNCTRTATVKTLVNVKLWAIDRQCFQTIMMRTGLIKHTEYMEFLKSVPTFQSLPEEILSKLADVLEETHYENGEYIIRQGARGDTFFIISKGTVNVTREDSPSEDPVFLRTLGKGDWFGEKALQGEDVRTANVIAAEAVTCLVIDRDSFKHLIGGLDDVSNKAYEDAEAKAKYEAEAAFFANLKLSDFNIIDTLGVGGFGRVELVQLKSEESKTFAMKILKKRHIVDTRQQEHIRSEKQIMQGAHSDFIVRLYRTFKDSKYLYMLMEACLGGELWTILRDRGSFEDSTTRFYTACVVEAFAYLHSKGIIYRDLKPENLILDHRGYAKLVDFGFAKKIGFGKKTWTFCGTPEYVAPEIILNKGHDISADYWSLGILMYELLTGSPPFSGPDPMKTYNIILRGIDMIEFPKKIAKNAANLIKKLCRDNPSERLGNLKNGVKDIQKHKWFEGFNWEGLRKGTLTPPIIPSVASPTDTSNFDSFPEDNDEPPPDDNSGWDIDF
T8 sequence (P15735 whole entry): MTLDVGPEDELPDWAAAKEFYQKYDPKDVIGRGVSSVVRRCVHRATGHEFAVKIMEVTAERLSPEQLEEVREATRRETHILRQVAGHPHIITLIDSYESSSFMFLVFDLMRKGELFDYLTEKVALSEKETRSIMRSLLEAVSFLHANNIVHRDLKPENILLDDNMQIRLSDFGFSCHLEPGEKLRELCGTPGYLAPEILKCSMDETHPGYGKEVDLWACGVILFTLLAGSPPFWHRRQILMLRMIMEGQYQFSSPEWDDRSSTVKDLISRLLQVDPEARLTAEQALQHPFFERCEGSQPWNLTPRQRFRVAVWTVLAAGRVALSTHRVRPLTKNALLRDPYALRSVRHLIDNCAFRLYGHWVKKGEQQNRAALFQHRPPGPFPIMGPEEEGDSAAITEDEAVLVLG
EphA1, sequence (P21709 whole entry): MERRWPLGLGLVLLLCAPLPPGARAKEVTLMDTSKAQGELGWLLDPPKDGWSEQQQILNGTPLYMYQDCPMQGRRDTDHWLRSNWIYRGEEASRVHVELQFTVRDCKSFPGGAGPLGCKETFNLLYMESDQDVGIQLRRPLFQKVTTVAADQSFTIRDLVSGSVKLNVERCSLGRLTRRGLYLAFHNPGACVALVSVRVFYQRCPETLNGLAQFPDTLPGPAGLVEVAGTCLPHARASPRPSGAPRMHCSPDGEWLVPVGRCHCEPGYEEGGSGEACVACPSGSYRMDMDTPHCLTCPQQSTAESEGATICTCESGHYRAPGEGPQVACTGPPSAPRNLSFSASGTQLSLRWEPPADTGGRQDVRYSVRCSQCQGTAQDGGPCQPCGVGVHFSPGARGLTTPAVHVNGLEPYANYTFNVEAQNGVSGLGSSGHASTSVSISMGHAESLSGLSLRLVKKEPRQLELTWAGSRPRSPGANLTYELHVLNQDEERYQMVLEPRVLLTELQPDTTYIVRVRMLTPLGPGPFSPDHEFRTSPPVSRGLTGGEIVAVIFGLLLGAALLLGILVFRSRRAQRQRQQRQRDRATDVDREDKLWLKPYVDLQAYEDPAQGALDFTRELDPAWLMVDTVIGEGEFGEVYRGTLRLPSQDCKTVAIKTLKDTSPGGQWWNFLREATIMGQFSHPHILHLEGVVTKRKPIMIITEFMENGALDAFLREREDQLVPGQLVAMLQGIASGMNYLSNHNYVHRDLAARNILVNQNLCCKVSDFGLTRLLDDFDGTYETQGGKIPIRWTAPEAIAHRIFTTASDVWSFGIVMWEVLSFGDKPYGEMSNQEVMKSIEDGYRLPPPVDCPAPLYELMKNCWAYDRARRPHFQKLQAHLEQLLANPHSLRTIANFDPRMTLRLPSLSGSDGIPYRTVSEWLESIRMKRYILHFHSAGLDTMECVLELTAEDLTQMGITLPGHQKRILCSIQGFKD
CAMKK2, sequence (Q96RR4 whole entry): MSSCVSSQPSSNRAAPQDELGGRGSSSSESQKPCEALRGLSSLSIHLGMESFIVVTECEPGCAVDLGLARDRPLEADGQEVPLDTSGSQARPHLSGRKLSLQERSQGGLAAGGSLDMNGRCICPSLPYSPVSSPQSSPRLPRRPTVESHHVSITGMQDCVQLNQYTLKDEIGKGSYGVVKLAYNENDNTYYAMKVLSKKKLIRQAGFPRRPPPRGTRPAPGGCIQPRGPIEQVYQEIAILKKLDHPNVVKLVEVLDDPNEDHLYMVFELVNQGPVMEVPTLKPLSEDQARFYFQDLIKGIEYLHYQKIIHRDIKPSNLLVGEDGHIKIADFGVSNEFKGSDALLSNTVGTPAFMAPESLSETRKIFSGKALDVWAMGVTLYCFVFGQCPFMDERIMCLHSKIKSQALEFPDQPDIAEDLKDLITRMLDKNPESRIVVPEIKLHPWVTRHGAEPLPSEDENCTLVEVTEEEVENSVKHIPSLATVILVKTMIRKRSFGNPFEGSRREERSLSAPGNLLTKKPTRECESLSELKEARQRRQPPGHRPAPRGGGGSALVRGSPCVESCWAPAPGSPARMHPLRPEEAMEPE
TGFBR1, sequence (P36897 whole entry): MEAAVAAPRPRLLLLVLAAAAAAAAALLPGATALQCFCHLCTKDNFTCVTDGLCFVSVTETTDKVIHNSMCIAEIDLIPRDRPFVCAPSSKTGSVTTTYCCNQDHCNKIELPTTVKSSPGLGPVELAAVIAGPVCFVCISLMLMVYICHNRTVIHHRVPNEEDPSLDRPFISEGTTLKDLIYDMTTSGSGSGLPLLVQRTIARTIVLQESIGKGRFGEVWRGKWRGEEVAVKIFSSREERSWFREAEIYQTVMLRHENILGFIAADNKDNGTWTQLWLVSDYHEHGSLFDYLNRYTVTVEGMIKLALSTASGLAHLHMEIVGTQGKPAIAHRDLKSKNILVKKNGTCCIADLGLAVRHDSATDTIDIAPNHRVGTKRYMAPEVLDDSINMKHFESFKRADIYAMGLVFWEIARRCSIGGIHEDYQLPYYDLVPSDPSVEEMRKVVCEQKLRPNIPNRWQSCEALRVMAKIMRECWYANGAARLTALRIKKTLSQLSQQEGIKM
T5 sequence (P49840 whole entry): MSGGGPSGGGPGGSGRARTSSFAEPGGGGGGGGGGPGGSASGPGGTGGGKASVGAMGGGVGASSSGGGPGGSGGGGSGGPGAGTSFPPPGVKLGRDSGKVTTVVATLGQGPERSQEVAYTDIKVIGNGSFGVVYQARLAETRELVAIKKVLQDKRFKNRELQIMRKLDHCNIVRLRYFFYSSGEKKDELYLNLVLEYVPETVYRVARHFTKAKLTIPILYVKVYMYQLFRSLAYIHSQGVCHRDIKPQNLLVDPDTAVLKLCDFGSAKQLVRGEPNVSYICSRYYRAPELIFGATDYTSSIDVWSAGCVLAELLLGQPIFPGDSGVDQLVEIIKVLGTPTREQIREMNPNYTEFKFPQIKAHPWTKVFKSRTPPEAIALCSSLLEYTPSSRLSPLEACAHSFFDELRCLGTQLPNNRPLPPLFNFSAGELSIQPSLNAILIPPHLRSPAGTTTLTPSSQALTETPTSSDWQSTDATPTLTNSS

Row | SMILES | inhibition at 1 µM (CaMKI_delta) [%] | inhibition at 1 µM (PKG1_alpha) [%] | inhibition at 1 µM (TTK) [%] | inhibition at 1 µM (MuSK) [%] | inhibition at 1 µM (JNK1_alpha1) [%] | inhibition at 1 µM (TSSK1) [%] | inhibition at 1 µM (GSK3_alpha) [%] | inhibition at 1 µM (ROCK2) [%] | inhibition at 1 µM (PDK1(direct)) [%] | inhibition at 1 µM (BrSK1) [%] | inhibition at 1 µM (DDR1) [%] | inhibition at 1 µM (CLK4) [%] | inhibition at 1 µM (MARK3) [%] | inhibition at 1 µM (JNK3) [%] | inhibition at 1 µM (MKNK2) [%] | inhibition at 1 µM (Blk) [%] | inhibition at 1 µM (PhK_gamma2) [%] | inhibition at 1 µM (GRK6) [%] | inhibition at 1 µM (EphA1) [%] | inhibition at 1 µM (EphB1) [%] | further results
1 | CCOC(=O)Nc1cccc2c(Oc3ncccc3-c3ccnc(N[C@H]4CCCNC4)n3)c(C)ccc12 [G-1749] | 0 | 1 | 16 | 13.5 | 53.5 | 8.5 | 2.5 | 1 | 5 | 6.5 | 46 | 10.5 | 8 | 52.5 | 3.5 | 10 | 2.5 | -1 | 7 | -17 | inhibition at 1 µM (WEE1): -5%; inhibition at 1 µM (TGFBR1): 5.5%; inhibition at 1 µM (JAK3): -15.5%; inhibition at 1 µM (CAMKK2): -0.5%; inhibition at 1 µM (CK2_alpha1): 0.5%
2 | CC#CC(=O)Nc1cccc2c(Oc3ncccc3-c3ccnc(N[C@H]4CCCNC4)n3)c(C)ccc12 [G-7658] | 0.5 | 3.5 | 11.5 | 9.5 | 72.5 | 7.5 | 10.5 | -0.5 | 3.5 | 4.5 | 29 | 6 | 8 | 51.5 | -2 | 7.5 | 4 | 1.5 | 6 | -11.5 | inhibition at 1 µM (WEE1): -0.5%; inhibition at 1 µM (TGFBR1): 7.5%; inhibition at 1 µM (JAK3): -15%; inhibition at 1 µM (CAMKK2): -0.5%; inhibition at 1 µM (CK2_alpha1): 0%

Reference: PMC7736581, “Activation of the IRE1 RNase through remodeling of the kinase front pocket by ATP-competitive ligands” (Nature Communications, 2020)
